The text below walks through data of the supplement of paper PMC6045584.

± gives the standard deviation of the averaged measurements.

Compound in assay [1]: C[C@@H](Oc1cc(-c2cnn(C3CCNCC3)c2)cnc1N)c1c(Cl)ccc(F)c1Cl
The assay can be described thus: surviving fraction relative to DMSO-only wells; higher = less growth inhibition. The following applies: exposure time: 5 days. In a few lines: (§1)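 Surviving fraction was calculated by normalising CellTiter-Glo luminescence to the median of DMSO-only wells. Tumour cell lines in log phase were seeded in 384-well plates at 250–500 cells per well, and 24 hours later were exposed continuously for five days to inhibitors at 0.5, 1, 5, 10, 50, 100, 500 and 1000 nM.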

Compound in another assay: O=C(c1cc(Cc2n[nH]c(=O)c3ccccc23)ccc1F)N1CCN(C(=O)C2CC2)CC1 [OLAPARIB]
Described as above. The following applies: exposure time: 5 days. In a few lines: as §1

For MCF7 BREAST, the surviving fraction in assay [1] (0.5 nM) worked out at 0.826 ± 0.063; in assay [1] (1 nM), 0.818 ± 0.027; in assay [1] (5 nM) it was 0.827 ± 0.046; in assay [1] (10 nM), 0.802 ± 0.03; in assay [1] (50 nM), 0.89 ± 0.021; in assay [1] (100 nM), 0.834 ± 0.034. Moreover, the surviving fraction in assay [1] (500 nM) amounted to 0.755 ± 0.011; in assay [1] (1000 nM) it was 0.511 ± 0.017; in the assay with OLAPARIB (0.5 nM), 0.891 ± 0.015; with OLAPARIB (1 nM) it was 0.941 ± 0.014; in the assay with OLAPARIB (5 nM), 0.946 ± 0.085; in the assay with OLAPARIB (10 nM), 0.907 ± 0.037. The surviving fraction came to 0.96 ± 0.039 with OLAPARIB (50 nM), 0.906 ± 0.051 in the assay with OLAPARIB (100 nM), 0.95 ± 0.026 in the assay with OLAPARIB (500 nM) and 0.943 ± 0.043 with OLAPARIB (1000 nM).

In the case of HOSMNG BONE, the surviving fraction in assay [1] (0.5 nM) was 0.985 ± 0.018; in assay [1] (1 nM), 1 ± 0.02; in assay [1] (5 nM) it was 0.949 ± 0.016; in assay [1] (10 nM) it was 0.949 ± 0.039; in assay [1] (50 nM), 0.637 ± 0.066; in assay [1] (100 nM), 0.518 ± 0.016. In addition, the surviving fraction amounted to 0.262 ± 0.013 in assay [1] (500 nM); 0.17 ± 0.0051 in assay [1] (1000 nM); 0.877 ± 0.088 with OLAPARIB (0.5 nM); 0.991 ± 0.034 in the assay with OLAPARIB (1 nM); 0.964 ± 0.043 with OLAPARIB (5 nM); 0.933 ± 0.049 with OLAPARIB (10 nM). Besides, the surviving fraction with OLAPARIB (50 nM) turned out to be 1.02 ± 0.056; with OLAPARIB (100 nM), 1.05 ± 0.03; with OLAPARIB (500 nM) it was 1.06 ± 0.021; in the assay with OLAPARIB (1000 nM) it was 0.925 ± 0.14.

For the test system U2OS BONE, the surviving fraction in assay [1] (0.5 nM) was found to be 0.938 ± 0.047; in assay [1] (1 nM) it was 0.974 ± 0.027; in assay [1] (5 nM) it was 0.98 ± 0.028; in assay [1] (100 nM), 0.976 ± 0.052; in assay [1] (500 nM) it was 0.474 ± 0.02; in assay [1] (1000 nM), 0.472 ± 0.012. Also, the surviving fraction in the assay with OLAPARIB (0.5 nM) turned out to be 1.08 ± 0.045; with OLAPARIB (1 nM), 1.05 ± 0.069; with OLAPARIB (5 nM) it was 1.06 ± 0.044; with OLAPARIB (10 nM) it was 1.07 ± 0.04; with OLAPARIB (50 nM) it was 1.05 ± 0.055; in the assay with OLAPARIB (100 nM), 1.01 ± 0.046. The surviving fraction is 0.945 ± 0.018 in the assay with OLAPARIB (500 nM) and 0.877 ± 0.032 in the assay with OLAPARIB (1000 nM).

For CADOES1 SOFT TISSUE, the surviving fraction is 0.89 ± 0.16 in assay [1] (1 nM); 0.961 ± 0.088 in assay [1] (5 nM); 0.936 ± 0.036 in assay [1] (10 nM); 0.93 ± 0.042 in assay [1] (50 nM); 0.941 ± 0.04 in assay [1] (100 nM); 0.576 ± 0.054 in assay [1] (500 nM). Further, the surviving fraction in assay [1] (1000 nM) was 0.291 ± 0.033; with OLAPARIB (0.5 nM) it was 1.01 ± 0.059; with OLAPARIB (1 nM), 0.855 ± 0.072; in the assay with OLAPARIB (5 nM), 1.03 ± 0.07; with OLAPARIB (10 nM), 0.8393 ± 0.0035; with OLAPARIB (50 nM), 0.951 ± 0.046. Also, the results for the surviving fraction with OLAPARIB (100 nM), with OLAPARIB (500 nM) and with OLAPARIB (1000 nM) were 0.953 ± 0.076, 0.895 ± 0.084 and 0.81 ± 0.14, respectively.

Regarding SG32 HEADNECK, the surviving fraction in assay [1] (0.5 nM) was 0.809 ± 0.17; in assay [1] (1 nM), 0.907 ± 0.093; in assay [1] (5 nM), 0.931 ± 0.15; in assay [1] (10 nM), 0.799 ± 0.11; in assay [1] (50 nM), 0.955 ± 0.15; in assay [1] (500 nM), 0.475 ± 0.06. The surviving fraction in assay [1] (1000 nM) was 0.359 ± 0.092; with OLAPARIB (0.5 nM), 1.23 ± 0.41; with OLAPARIB (1 nM), 1.43 ± 0.2; with OLAPARIB (5 nM), 1.23 ± 0.4; with OLAPARIB (10 nM) it was 1.24 ± 0.15; with OLAPARIB (50 nM), 1.03 ± 0.054. The surviving fraction with OLAPARIB (100 nM) was 1.05 ± 0.22; in the assay with OLAPARIB (500 nM) it was 0.77 ± 0.042; in the assay with OLAPARIB (1000 nM) it was 0.795 ± 0.081.

In the case of HT1080 SOFT TISSUE, the surviving fraction in assay [1] (0.5 nM) came to 1 ± 0.018; in assay [1] (5 nM), 1.02 ± 0.011; in assay [1] (10 nM), 0.991 ± 0.059; in assay [1] (500 nM) it was 0.953 ± 0.036; in assay [1] (1000 nM), 0.638 ± 0.047; with OLAPARIB (0.5 nM), 1.02 ± 0.0063. For the same test system, the surviving fraction worked out at 0.977 ± 0.023 in the assay with OLAPARIB (1 nM); 0.9903 ± 0.0038 with OLAPARIB (5 nM); 0.965 ± 0.013 with OLAPARIB (10 nM); 0.882 ± 0.037 with OLAPARIB (50 nM); 0.819 ± 0.032 with OLAPARIB (100 nM); 0.7243 ± 0.0055 with OLAPARIB (500 nM). In the assay with OLAPARIB (1000 nM), the surviving fraction is 0.608 ± 0.021.

For the test system CME SYNOVIAL, the surviving fraction in assay [1] (0.5 nM) amounted to 0.902 ± 0.043; in assay [1] (5 nM), 0.98 ± 0.25; in assay [1] (10 nM) it was 0.902 ± 0.12; in assay [1] (50 nM) it was 1.04 ± 0.04; in assay [1] (100 nM), 1.06 ± 0.14; in assay [1] (500 nM), 0.634 ± 0.054. The surviving fraction was determined as 0.272 ± 0.007 in assay [1] (1000 nM); 1.29 ± 0.3 in the assay with OLAPARIB (0.5 nM); 1.27 ± 0.059 with OLAPARIB (1 nM); 1.23 ± 0.11 with OLAPARIB (5 nM); 1.16 ± 0.22 with OLAPARIB (10 nM); 0.737 ± 0.14 with OLAPARIB (50 nM). The figures for the surviving fraction with OLAPARIB (100 nM), in the assay with OLAPARIB (500 nM) and in the assay with OLAPARIB (1000 nM) were 0.616 ± 0.051, 0.386 ± 0.053 and 0.303 ± 0.021, respectively.

Regarding HCC1954 BREAST, the surviving fraction amounted to 0.364 ± 0.042 in assay [1] (0.5 nM); 0.353 ± 0.084 in assay [1] (1 nM); 0.426 ± 0.06 in assay [1] (5 nM); 0.401 ± 0.021 in assay [1] (10 nM); 0.472 ± 0.019 in assay [1] (50 nM); 0.473 ± 0.036 in assay [1] (100 nM). For the same test system, the surviving fraction in assay [1] (500 nM) came to 0.443 ± 0.11; in assay [1] (1000 nM), 0.4677 ± 0.0032; with OLAPARIB (0.5 nM), 0.84 ± 0.13; in the assay with OLAPARIB (1 nM), 0.762 ± 0.033; with OLAPARIB (5 nM), 1.1 ± 0.06; in the assay with OLAPARIB (10 nM) it was 0.969 ± 0.038. The surviving fraction was 0.916 ± 0.092 in the assay with OLAPARIB (50 nM), 0.6867 ± 0.0046 with OLAPARIB (100 nM), 0.719 ± 0.013 in the assay with OLAPARIB (500 nM) and 0.497 ± 0.0021 in the assay with OLAPARIB (1000 nM).

Consider MDAMB361 BREAST, for which the surviving fraction in assay [1] (0.5 nM) was determined as 0.779 ± 0.017; in assay [1] (1 nM), 0.768 ± 0.029; in assay [1] (5 nM) it was 0.807 ± 0.043; in assay [1] (100 nM), 0.858 ± 0.026; in assay [1] (500 nM) it was 1.04 ± 0.053; in assay [1] (1000 nM) it was 1.02 ± 0.047. Moreover, the surviving fraction in the assay with OLAPARIB (0.5 nM) was determined as 0.82 ± 0.026; in the assay with OLAPARIB (1 nM), 0.793 ± 0.076; in the assay with OLAPARIB (5 nM) it was 0.773 ± 0.094; with OLAPARIB (10 nM), 0.767 ± 0.042; with OLAPARIB (50 nM), 0.612 ± 0.064; with OLAPARIB (100 nM), 0.603 ± 0.048. For the same test system, the surviving fraction is 0.577 ± 0.051 with OLAPARIB (500 nM) and 0.523 ± 0.036 with OLAPARIB (1000 nM).
